Some test systems named below: A549 NSCLC; IGROV1 ovarian; KM12 colon; MOLT-4 leukemia; NCI-H460 lung; OVCAR-5 ovarian; OVCAR-8 ovarian; SK-OV-3 ovarian; SW-620 colon; UACC-257 melanoma.
Test in all cases: NCI tumour cell line growth inhibition, 48 h

Several values for one entry are separate records, joined by “and”; a condition that tells them apart may be missing. Equal values may be shown once.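 Values below derive from 48-hour exposures of cells grown in 96-well plates, with endpoints linearly interpolated between the two concentrations bracketing the appropriate inhibition level. GI50 marks 50% less growth. The concentration for full growth arrest is given as TGI.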 Bounds are passed on as bounds.

In the case of `O=c1c(-c2cccc3ccccc23)c(-c2cccc3ccccc23)c1=O`, the TGI in the test on A549 NSCLC is 12 µM; in the test with IGROV1 ovarian, greater than 100 µM; in the test with KM12 colon it was 21.1 µM; in the test with MOLT-4 leukemia, greater than 45.2 µM; in the test with NCI-H460 lung, 4 µM; in the test on OVCAR-5 ovarian it was greater than 84.9 µM. Further, the TGI in the test with OVCAR-8 ovarian is 13.6 µM; with SK-OV-3 ovarian, 26.1 µM; with SW-620 colon it was 58.9 µM; in the test with UACC-257 melanoma, greater than 39.6 µM.
`CN1CCN(CCCOC(=O)c2c3c(n4ccccc24)C(=O)c2ncccc2C3=O)CC1`: the GI50 with A549 NSCLC is less than 0.01 µM; in the test with IGROV1 ovarian, less than 0.0194 µM; in the test on KM12 colon, 0.0669 µM; in the test on MOLT-4 leukemia, 0.0604 µM; in the test with NCI-H460 lung it was less than 0.01 µM; with OVCAR-5 ovarian, 0.357 µM. Also, the GI50 is less than 0.011 µM in the test on OVCAR-8 ovarian, less than 0.01 µM with SK-OV-3 ovarian, less than 0.01 µM in the test with SW-620 colon and 0.0219 µM in the test on UACC-257 melanoma. For the same molecule, the TGI is 0.0593 µM in the test on A549 NSCLC; 4.71 µM with IGROV1 ovarian; 13.8 µM in the test with KM12 colon; 23.4 µM in the test on MOLT-4 leukemia; less than 0.0118 µM in the test on NCI-H460 lung; 3.65 µM in the test with OVCAR-5 ovarian. Moreover, the TGI is 11.9 µM in the test on OVCAR-8 ovarian, 0.0278 µM in the test with SK-OV-3 ovarian, 0.0385 µM in the test with SW-620 colon and 1.3 µM in the test with UACC-257 melanoma.
Turning to `C=C1C(=O)O[C@@H]2C[C@@]3(C)CCC[C@H](C)C3=C[C@H]12` (tested in a mixture with another compound), the TGI in the test with A549 NSCLC came out at 18.6 µM; with IGROV1 ovarian it was 7.71 µM; in the test with KM12 colon it was 8.89 µM; with MOLT-4 leukemia, 3.73 µM; in the test with NCI-H460 lung, 14.3 µM; in the test on OVCAR-5 ovarian it was 15.8 µM. Besides, the TGI in the test with OVCAR-8 ovarian turned out to be 3.13 µM; with SK-OV-3 ovarian, 22.7 µM; in the test on SW-620 colon it was 3.97 µM; with UACC-257 melanoma it was 3.75 µM.
On to `O=c1cc(-c2cccc(Cl)c2)[nH]c2cc3c(cc12)OCO3`, for which the GI50 is 0.829 µM in the test with A549 NSCLC, 3.54 µM in the test on IGROV1 ovarian, 0.654 µM with MOLT-4 leukemia and 0.76 µM with OVCAR-8 ovarian. Moreover, the TGI is 75 µM and 18.1 µM with A549 NSCLC; 28.1 µM with KM12 colon; 75 µM and > 100 µM in the test on MOLT-4 leukemia; greater than 100 µM in the test on NCI-H460 lung; greater than 100 µM in the test with OVCAR-5 ovarian; 35 µM and 18.1 µM in the test with OVCAR-8 ovarian. Moreover, the TGI with SK-OV-3 ovarian is 3.05 µM; in the test on SW-620 colon, greater than 100 µM; with UACC-257 melanoma, greater than 100 µM.
In the case of `CC[C@@H]1C(=O)N(C)c2cnc(Nc3ccc(C(=O)NC4CCC(N5CCN(CC6CC6)CC5)CC4)cc3OC)nc2N1C(C)C` (stereo partly drawn), the GI50 with A549 NSCLC is 0.0308 µM and 0.0348 µM; with IGROV1 ovarian, 0.0418 µM and 0.0524 µM; in the test on KM12 colon it was 0.0069 µM and < 0.01 µM; with MOLT-4 leukemia it was 0.0116 µM and 0.019 µM; with NCI-H460 lung it was 0.0123 µM and 0.0297 µM; in the test with OVCAR-5 ovarian, 0.0146 µM and 0.0502 µM. The GI50 was 0.0242 µM and 0.033 µM in the test with OVCAR-8 ovarian; 0.046 µM and 0.0354 µM in the test with SK-OV-3 ovarian; 0.00561 µM and 0.0102 µM in the test on SW-620 colon; 0.22 µM and 0.046 µM in the test with UACC-257 melanoma. Besides, the TGI in the test with IGROV1 ovarian is > 10 µM and 7.22 µM; in the test with KM12 colon it was > 10 µM and 8.15 µM; in the test on MOLT-4 leukemia, > 5.38 µM and 1.28 µM; in the test on NCI-H460 lung, > 10 µM and 1.86 µM; in the test on OVCAR-5 ovarian, > 10 µM and 16.9 µM; with OVCAR-8 ovarian, > 10 µM and 1.65 µM. Also, the TGI with SK-OV-3 ovarian is 1.37 µM and 0.904 µM; in the test with SW-620 colon, > 10 µM and 11.1 µM; with UACC-257 melanoma, > 5.86 µM and 1.75 µM.
`CCN(CC)C(=O)c1cccc2c(OC)ccc(OC)c12`: the TGI in the test on A549 NSCLC, in the test with IGROV1 ovarian, in the test on KM12 colon, with MOLT-4 leukemia, with NCI-H460 lung and with OVCAR-5 ovarian was greater than 100 µM each time. Moreover, the TGI with OVCAR-8 ovarian, with SK-OV-3 ovarian, in the test on SW-620 colon and in the test with UACC-257 melanoma was greater than 100 µM throughout.
As to `COc1ccc2c(c1[N+](=O)[O-])CC[C@@H]1[C@@H]2CC[C@]2(C)C(=O)CC[C@@H]12`, the GI50 was greater than 751 µM with A549 NSCLC; 741 µM in the test with IGROV1 ovarian; greater than 1000 µM in the test with KM12 colon; greater than 1000 µM in the test with MOLT-4 leukemia; greater than 756 µM in the test on NCI-H460 lung; greater than 1000 µM in the test on OVCAR-5 ovarian. Moreover, the GI50 with OVCAR-8 ovarian was 462 µM; in the test with SK-OV-3 ovarian, 413 µM; with SW-620 colon it was greater than 1000 µM; in the test on UACC-257 melanoma it was greater than 931 µM. The TGI in the test on A549 NSCLC, with IGROV1 ovarian, with KM12 colon, in the test with MOLT-4 leukemia, in the test with OVCAR-5 ovarian and in the test on OVCAR-8 ovarian was greater than 1000 µM throughout. Besides, the TGI in the test on SW-620 colon and in the test with UACC-257 melanoma was greater than 1000 µM in each case.
With `C[C@]12CC[C@H]3[C@@H](CCC4=CC(=O)CC[C@@]43C)[C@]1(O)CC[C@]2(O)C(=O)CO`, the TGI with A549 NSCLC, with IGROV1 ovarian, in the test on KM12 colon, in the test on MOLT-4 leukemia, in the test on NCI-H460 lung and in the test with OVCAR-5 ovarian was greater than 100 µM in each case. Moreover, the TGI with OVCAR-8 ovarian, in the test with SK-OV-3 ovarian, in the test on SW-620 colon and in the test on UACC-257 melanoma was greater than 100 µM each time.
For the molecule `CC(=O)Nc1ccc(CC[C@H]2CCC/C=C/[C@@H]3C[C@H](O)C[C@H]3[C@H](O)/C=C/C(=O)O2)cc1`, the GI50 was 0.309 µM in the test with A549 NSCLC; 0.0887 µM in the test on IGROV1 ovarian; 0.0983 µM in the test on KM12 colon; 0.345 µM in the test on MOLT-4 leukemia; 0.365 µM in the test on NCI-H460 lung; 0.346 µM in the test with OVCAR-5 ovarian. Besides, the GI50 in the test on OVCAR-8 ovarian was 0.0821 µM; in the test on SK-OV-3 ovarian it was 0.0667 µM; with SW-620 colon it was 0.185 µM; with UACC-257 melanoma, 0.0596 µM. For the same molecule, the TGI was greater than 100 µM in the test on A549 NSCLC; 0.237 µM in the test on IGROV1 ovarian; 0.315 µM in the test on KM12 colon; 2.82 µM in the test with MOLT-4 leukemia; greater than 100 µM with NCI-H460 lung; greater than 66.4 µM with OVCAR-5 ovarian. In addition, the TGI is greater than 100 µM with OVCAR-8 ovarian, greater than 100 µM in the test on SK-OV-3 ovarian, 0.597 µM in the test with SW-620 colon and greater than 100 µM in the test on UACC-257 melanoma.
For the molecule `COc1cc2c(cc1OCCCCCOc1ccc(-c3nc4ccccc4s3)cc1)N=C[C@@H]1CCCN1C2=O`, the GI50 in the test on A549 NSCLC is 5.29 µM; in the test on IGROV1 ovarian it was 4.39 µM; in the test with KM12 colon, 4.38 µM; with MOLT-4 leukemia it was 3.5 µM; in the test with NCI-H460 lung, 1.27 µM; in the test on OVCAR-5 ovarian, 2.74 µM. Besides, the GI50 is 3.13 µM in the test on OVCAR-8 ovarian, 8.97 µM in the test on SK-OV-3 ovarian, 3.01 µM in the test with SW-620 colon and 6.61 µM in the test on UACC-257 melanoma. In addition, the TGI in the test with A549 NSCLC turned out to be 20.4 µM; in the test on IGROV1 ovarian, 43.5 µM; with KM12 colon, 22.9 µM; with MOLT-4 leukemia, 20 µM; in the test with NCI-H460 lung, 7.66 µM; in the test with OVCAR-5 ovarian, 19.2 µM. Also, the TGI is 21.1 µM with OVCAR-8 ovarian, greater than 25.6 µM in the test on SK-OV-3 ovarian, greater than 28.6 µM in the test on SW-620 colon and 21.2 µM in the test with UACC-257 melanoma.
As for `CC(C)CC(NC(=O)C(O)C(N)Cc1ccccc1)C(=O)O` (stereo not drawn), the TGI with A549 NSCLC, with IGROV1 ovarian, in the test with KM12 colon, in the test with MOLT-4 leukemia, in the test with NCI-H460 lung and in the test on OVCAR-5 ovarian was greater than 100 µM throughout. For the same molecule, the TGI in the test with OVCAR-8 ovarian, in the test on SK-OV-3 ovarian, with SW-620 colon and with UACC-257 melanoma was greater than 100 µM each time.
As to `CN(C)C(=C1C(Br)=C(Br)C(Br)=C1Br)N(C)C`, the TGI in the test on A549 NSCLC, in the test on IGROV1 ovarian, with KM12 colon, in the test on MOLT-4 leukemia, in the test on NCI-H460 lung and in the test with OVCAR-5 ovarian was greater than 100 µM each time. Further, the TGI in the test on OVCAR-8 ovarian, with SK-OV-3 ovarian, in the test on SW-620 colon and in the test on UACC-257 melanoma was greater than 100 µM throughout.
In the case of `CN(C)CCN1C(=O)c2cccc3cc(N)cc(c23)C1=O`, the GI50 in the test on A549 NSCLC is 0.912 µM and 1.51 µM; in the test with IGROV1 ovarian it was 2.68 µM; with KM12 colon, 3.32 µM; in the test on MOLT-4 leukemia it was 1.88 µM; in the test on OVCAR-5 ovarian, 3.98 µM; in the test with OVCAR-8 ovarian it was 2.46 µM. The GI50 with SW-620 colon is 2.14 µM; in the test with UACC-257 melanoma, 2.55 µM. Further, the TGI is > 21.5 µM and 9.09 µM in the test on A549 NSCLC; > 44.1 µM and 20.8 µM in the test with IGROV1 ovarian; 26.5 µM and 25.5 µM with KM12 colon; > 100 µM and 13.5 µM in the test with MOLT-4 leukemia; 5.34 µM and 5.95 µM in the test with NCI-H460 lung; 48.7 µM and 13.8 µM with OVCAR-5 ovarian. In addition, the TGI with OVCAR-8 ovarian was 30.5 µM and 7.38 µM; in the test with SK-OV-3 ovarian it was 38.4 µM and 17.4 µM; in the test on SW-620 colon it was 24.3 µM and 15.9 µM; in the test on UACC-257 melanoma, 9.51 µM and 12.8 µM.
On to `COc1cc(OC)c(OC)cc1/C=C/c1ccccn1`, for which the TGI with A549 NSCLC, in the test on IGROV1 ovarian, in the test with KM12 colon, with MOLT-4 leukemia, in the test on NCI-H460 lung and with OVCAR-5 ovarian was greater than 10 µM in each case. The TGI in the test on OVCAR-8 ovarian, with SK-OV-3 ovarian, with SW-620 colon and in the test with UACC-257 melanoma was greater than 10 µM throughout.
On to `O=S1(=O)[C@H](c2ccccc2)c2c(-c3ccccc3)sc(-c3ccccc3)c2[C@@H]1c1ccccc1`, for which the TGI in the test on A549 NSCLC, in the test on IGROV1 ovarian, with KM12 colon, with MOLT-4 leukemia, in the test on NCI-H460 lung and with OVCAR-5 ovarian was greater than 100 µM in each case. For the same molecule, the TGI with OVCAR-8 ovarian, in the test on SK-OV-3 ovarian, in the test on SW-620 colon and in the test on UACC-257 melanoma was greater than 100 µM each time.

The values are drawn from PubChem BioAssay (NCI).
